# Measurements taken from US9364567B2, “Fragments of p97 and uses thereof” (biOasis Technologies, Inc., priority 2013, dated 2016).
# Where two headings read alike, the source gives them in different places.
# Tested on: in vitro model of the blood brain barrier (brain capillary endothelial cells co-cultured with glial cells)
# Test: In vitro BBB model: passage of p97 tryptic digest peptides, LC-MS/MS peak areas in luminal and abluminal compartments
# Format: in vitro ADME, rat
# Description: Experiments were performed to evaluate the passage of mixtures of p97 peptide fragments across the blood-brain barrier (BBB) using a relevant and predictive BBB in vitro model (see Cecchelli et al., Adv. Drug Deliv. Rev. 36:165-178, 1999). The model utilizes brain capillary endothelial cells co-cultured with glial cells, to closely mimic the in vivo BBB (see Lundquist et al., Pharm. Res. 16:976-981, 2002).
# To provide an in vitro system for studying brain capillary functions, a process of co-culture that closely mimics the in vivo BBB was established by culturing brain capillary endothelial cells on one side of a filter and supportive glial cells on the other side. Specifically, endothelial cells were cultured in the upper compartment on the filter and glial cells in the lower compartment on the plastic of a six-wells plate (see FIGS. 7 and 8). Under these conditions, endothelial cells retain the appropriate endothelial markers (e.g., factor VIII—related antigen, non-thrombogenic surface, production of prostacyclin, angiotensin-converting enzyme activity), and also retain the relevant characteristics of the BBB (e.g., presence of tight junctions, paucity of pinocytotic vesicles, monoamine oxidase activity, γ-glutamyltranspeptidase activity, P-glycoprotein activity, specific receptors for low density lipoproteins, and transferrin).
# After removing the meninges, the brain tissue was forced gently through a nylon sieve. DMEM (Dulbecco's modified Eagle medium) supplemented with 10% (v/v) fetal calf serum (FCS, same as Fetal Bovine Serum: FBS), 2 mM glutamine, and 50 μg·ml^−1 of gentamycin was used for the dissociation of cerebral tissue and development of glial cells. […]
# The glial cells were plated at a concentration of about 1.25×10^5 cells/ml in plastic six-well plates and incubated at 37° C. with 5% CO2. The medium was changed twice a week. […] Then, sub-clones of endothelial cells frozen at passage 3 were cultured on a 60-mm-diameter gelatin-coated Petri dish. Confluent endothelial cells were trypsinized and plated on the upper side of the filters at a density of 4×10^5 cells/ml. The medium used for the co-culture was DMEM supplemented with 10% (v/v) calf serum (CS) and 10% (v/v) horse serum (HS), 2 mM glutamine, and 50 μg/ml of gentamycin, and 1 ng/ml of basic fibroblast growth factor was added every other day.
# On the day of the experiments, Ringer-HEPES (NaCl, 150 mM; KCl, 5.2 mM; CaCl2, 2.2 mM; MgCl2 6H20, 0.2 mM; NaHCO3, 6 mM; HEPES, 5 mM; glucose, 2.8 mM) was added to the lower compartment (abluminal side) of a six-well plate (3 mL per well). Filters with or without endothelial cells were washed with the Ringer-HEPES solution for 10 minutes at 37° C. to minimize traces of serum, and were then transferred to each well of the six-well plate. A volume of 1 mL Ringer-HEPES solution containing the peptide fragments in combination with Lucifer Yellow (20 μM) was placed in the upper compartment (luminal side) of the well.
# Experiments were performed in triplicate with filters containing a confluent monolayer of endothelial cells (for BBB integrity testing or evaluation of peptide fragment passage), or in triplicate with empty filters coated only with collagen (filter test). Incubations were performed on a rocking platform for 120 minutes at 37° C.
# [1] = tryptic peptides, abluminal compartment, 120 minutes, 3 micron pore size, LC-MS/MS peak area
# [2] = tryptic peptides, abluminal compartment, 120 minutes, 4 micron pore size, LC-MS/MS peak area
# [3] = tryptic peptides, luminal compartment, 120 minutes, 3 micron pore size, LC-MS/MS peak area
# [4] = tryptic peptides, luminal compartment, 120 minutes, 4 micron pore size, LC-MS/MS peak area
# [5] = tryptic peptides, abluminal/luminal peak area ratio at 120 minutes, 0.4 um insert
# [6] = tryptic peptides, abluminal/luminal peak area ratio at 120 minutes, 3.0 um insert
substance,measurement,setting,value
CGNMSEAFR (listed as Homo sapiens) [tryptic peptide fragment of human p97],Ablum 120: Area,,2.53E+07
same,Lum 120: Area,,0.00E+00
HSTVLENTDGK (listed as Homo sapiens) [tryptic peptide fragment of human p97],Ablum 120: Area,,0.00E+00
AVSDYFGGSCVPGAGETSYSESLCR [tryptic peptide fragment of human p97],Ablum 120: Area,[1],5.49E+08
same,Ablum 120: Area,[2],7.98E+08
same,Lum 120: Area,[3],5.51E+09
same,Lum 120: Area,[4],5.03E+09
GDSSGEGVCDKSPLER [tryptic peptide fragment of human p97],Ablum 120: Area,[1],1.93E+09
same,Ablum 120: Area,[2],2.34E+09
same,"Abl 120/Lum120 peak area ratio, 0.4 um insert",[5],4.93
same,"Abl 120/Lum120 peak area ratio, 3.0 um insert",[6],3.80
same,Lum 120: Area,[3],5.08E+08
same,Lum 120: Area,[4],4.75E+08
ADTDGGLIFR (listed as Homo sapiens) [tryptic peptide fragment of human p97],"Abl 120/Lum120 peak area ratio, 0.4 um insert",,1.95
same,"Abl 120/Lum120 peak area ratio, 3.0 um insert",,1.44
SEDYELLCPNGAR (listed as Homo sapiens) [tryptic peptide fragment of human p97],"Abl 120/Lum120 peak area ratio, 0.4 um insert",,13.05
same,"Abl 120/Lum120 peak area ratio, 3.0 um insert",,8.38
WCATSDPEQHK (listed as Homo sapiens) [tryptic peptide fragment of human p97],"Abl 120/Lum120 peak area ratio, 0.4 um insert",,8.92
same,"Abl 120/Lum120 peak area ratio, 3.0 um insert",,7.41
ADTDGGLIFRLLNEGQR [tryptic peptide fragment of human p97],Ablum 120: Area,[1],0.00E+00
same,Ablum 120: Area,[2],5.53E+06
same,Lum 120: Area,[3],3.69E+07
same,Lum 120: Area,[4],3.36E+07
AQDLFGDDHNKNGFK [tryptic peptide fragment of human p97],"Abl 120/Lum120 peak area ratio, 0.4 um insert",[5],5.45
same,"Abl 120/Lum120 peak area ratio, 3.0 um insert",[6],1.68
ADVTEWRQCHLAR (listed as Homo sapiens) [tryptic peptide fragment of human p97],Ablum 120: Area,,4.26E+06
same,Lum 120: Area,,0.00E+00
DSSHAFTLDELR (listed as Homo sapiens) [tryptic peptide fragment of human p97],"Abl 120/Lum120 peak area ratio, 0.4 um insert",,0.98
IQAEQVDAVTLSGEDIYTAGK [tryptic peptide fragment of human p97],Ablum 120: Area,[1],0.00E+00
same,Ablum 120: Area,[2],0.00E+00
same,Lum 120: Area,[3],3.48E+06
MFDSSNYHGQDLLFKDATVR [tryptic peptide fragment of human p97],Ablum 120: Area,[2],0.00E+00
same,Lum 120: Area,[4],0.00E+00
EHGLKPVVGEVYDQEVGTSYYAVAVVRR [tryptic peptide fragment of human p97],Ablum 120: Area,[1],1.70E+07
same,Ablum 120: Area,[2],2.62E+07
same,Lum 120: Area,[3],0.00E+00
same,Lum 120: Area,[4],0.00E+00
WCVLSTPEIQK (listed as Homo sapiens) [tryptic peptide fragment of human p97],Lum 120: Area,,0.00E+00
CLVENAGDVAFVR (listed as Homo sapiens) [tryptic peptide fragment of human p97],Ablum 120: Area,,1.30E+08
same,Lum 120: Area,,5.49E+08
YYDYSGAFR (listed as Homo sapiens) [tryptic peptide fragment of human p97],"Abl 120/Lum120 peak area ratio, 0.4 um insert",,7.40
LCRGDSSGEGVCDK [tryptic peptide fragment of human p97],Ablum 120: Area,[1],2.64E+05
same,Ablum 120: Area,[2],5.97E+05
same,"Abl 120/Lum120 peak area ratio, 0.4 um insert",[5],2.45
same,"Abl 120/Lum120 peak area ratio, 3.0 um insert",[6],1.21
same,Lum 120: Area,[3],2.17E+05
same,Lum 120: Area,[4],2.44E+05
VPAHAWVR,"Abl 120/Lum120 peak area ratio, 0.4 um insert",,3.32
same,"Abl 120/Lum120 peak area ratio, 3.0 um insert",,3.56
AVPVGEKTTYR (listed as Homo sapiens) [tryptic peptide fragment of human p97],Ablum 120: Area,,0.00E+00
same,Lum 120: Area,,0.00E+00
LLNEGQR (listed as Homo sapiens) [tryptic peptide fragment of human p97],Ablum 120: Area,,0.00E+00
NYPSSLCALCVGDEQGR [tryptic peptide fragment of human p97],Ablum 120: Area,[1],7.34E+07
same,Ablum 120: Area,[2],1.09E+08
same,Lum 120: Area,[3],6.15E+08
same,Lum 120: Area,[4],5.52E+08
ADVTEWR (listed as Homo sapiens) [tryptic peptide fragment of human p97],"Abl 120/Lum120 peak area ratio, 0.4 um insert",,12.76
same,"Abl 120/Lum120 peak area ratio, 3.0 um insert",,11.26
RSSHVTIDTLK (listed as Homo sapiens) [tryptic peptide fragment of human p97],"Abl 120/Lum120 peak area ratio, 0.4 um insert",,2.06
same,"Abl 120/Lum120 peak area ratio, 3.0 um insert",,1.23
SSHVTIDTLKGVK (listed as Homo sapiens) [tryptic peptide fragment of human p97],"Abl 120/Lum120 peak area ratio, 0.4 um insert",,2.42
same,"Abl 120/Lum120 peak area ratio, 3.0 um insert",,2.38
CGDMAVAFR (listed as Homo sapiens) [tryptic peptide fragment of human p97],"Abl 120/Lum120 peak area ratio, 0.4 um insert",,2.26
same,"Abl 120/Lum120 peak area ratio, 3.0 um insert",,2.06
LKPEIQCVSAK (listed as Homo sapiens) [tryptic peptide fragment of human p97],"Abl 120/Lum120 peak area ratio, 0.4 um insert",,4.81
same,"Abl 120/Lum120 peak area ratio, 3.0 um insert",,4.37
TVGWNVPVGYLVESGR [tryptic peptide fragment of human p97],Ablum 120: Area,[1],0.00E+00
same,Ablum 120: Area,[2],1.38E+07
same,Lum 120: Area,[3],9.38E+07
same,Lum 120: Area,[4],1.01E+08
CVGNSQERYYGYR (listed as Homo sapiens) [tryptic peptide fragment of human p97],Lum 120: Area,,0.00E+00
DLLFKDSTSELVPIATQTYEAWLGHEYLHAMK [tryptic peptide fragment of human p97],Ablum 120: Area,[2],0.00E+00
same,Lum 120: Area,[4],3.76E+07
DSSHAFTLDELRGK [tryptic peptide fragment of human p97],Ablum 120: Area,[1],1.99E+07
same,Ablum 120: Area,[2],2.37E+07
same,Lum 120: Area,[3],0.00E+00
same,Lum 120: Area,[4],0.00E+00
